# Like-named read-outs stand apart in the source and are kept apart here.
# Columns and labels:
# Assay type in all cases: physicochemical
# Solubility in water = details: for Native pH: 150 mg material in 1.0 mL deionized water, before pH adjustment; for solubility: deionized water, pH 7.4, aqueous buffer, thermodynamic from solid
# Experimental: Method. The solubility in water was studied as described hereafter. 150 mg of the studied materials of (1), (1·Na) and (1·K) were transferred to a glass vial and 1.0 mL of deionized water was added, vortex and ultrasonic treatment cycles were applied during 5 min. Then pH was checked and adjusted to pH=9.0-10.0 range by accurate addition of 2M aqueous solution of NaOH for (1) and (1·Na) or KOH for (1·K). Then several cycles of vortex and ultrasonic treatment were applied for 30 min. pH was adjusted to pH=7.2-7.6 range by careful addition of NaOH or KOH or HCl aqueous solutions. Vortex and ultrasonic treatment cycles and pH adjustments were repeated until pH stabilized at pH=7.2-7.6 range. Then the suspensions were centrifuged at 3000 rpm and supernatant was filtered thought membrane filter. The resulting filtrate was diluted in 1000 folds with DMSO and analyzed by HPLC against standard solution with known concentration.
# [1] = Forced degradation: thermal stability; details: for Thermal stability, purity (%): solids at 115° C.; for Decrease of purity in the thermal stability assay: after 3 weeks
# Experimental: For thermal stability powders were exposed to elevated temperature in capped glass vials kept inside thermostatic oven at 115° C.
# (§1) Samples were analyzed by RP-HPLC and Chiral HPLC at TO, after 1 week and after 3 weeks. For RP-HPLC analysis samples were analyzed directly from solutions used for stability study. For Chiral HPLC, aliquots were evaporated in Genevac at 40° C. and re-dissolved in the mobile phase.
# [2] = Forced degradation: photolytic stability; details: for Photolytic stability, purity (%): solutions 1 mg/mL in ACN/water (3:7), cool daylight lamp, around 22° C.; for Initial purities, purity (%): T0, baseline of the photolytic and thermal stability studies; for Decrease of purity in the photolytic stability assay: after 3 weeks
# Experimental: For photolytic stability, cool daylight lamp OSRAM DULUX TWIST 23W 1600 lm 6500 K located in 20 cm distance from the studied samples was used. Samples were prepared at 1 mg/mL concentration in ACN/water (3:7 v/v) solution and exposed to light in capped glass vials placed on reflective surface at ambient temperature (around 22° C.).
# as §1
# [3] = water, pH adjusted to 7.2-7.6, filtrate analysed by HPLC, read-out: Maximal solubility pH 7.4
SMILES,Native pH (Solubility in water),"Maximal solubility pH 7.4 (Solubility in water; water, pH adjusted to 7.2-7.6, filtrate analysed by HPLC)","Thermal stability, purity (%) ([1]; 1 week)","Thermal stability, purity (%) ([1]; 3 weeks)",Decrease of purity in the thermal stability assay [1],"Photolytic stability, purity (%) ([2]; 1 week)","Photolytic stability, purity (%) ([2]; 3 weeks)","Initial purities, purity (%) [2]",Decrease of purity in the photolytic stability assay [2],solubility (Solubility in water; [3]),"solubility (Solubility in water; water, read-out: Aqueous solubility (confirmed))","Increase of aqueous solubility compared with the free acid (1) (Solubility in water; water, pH 7.4)","Increase of aqueous solubility compared with the potassium salt (1·K) (Solubility in water; water, pH 7.4)",Solubility in water (in words) (Solubility in water; acid form)
COc1ccccc1-c1ccc(C(=O)N2[C@@H](c3ccccc3Cl)CC[C@H]2C(=O)[O-])cc1.[K+] [1·K],7,87 mg/mL,–,–,–,–,–,–,–,–,–,–,–,–
"COc1ccccc1-c1ccc(C(=O)N2[C@@H](c3ccccc3Cl)CC[C@H]2C(=O)[O-])cc1.[Na+] [1·Na, sodium (2S,5R)-5-(2-chlorophenyl)-1-(2′-methoxy-[1,1′-biphenyl]-4-carbonyl)pyrrolidine-2-carboxylate]",7,–,99.1%,98.9%,0.4%,98.5%,97.0%,99.3%,2.3%,129 mg/mL,~130 mg/mL,2 fold,1.5 fold,–
"COc1ccccc1-c1ccc(C(=O)N2[C@@H](c3ccccc3Cl)CC[C@H]2C(=O)O)cc1 [compound 1, (2S,5R)-5-(2-chlorophenyl)-1-(2′-methoxy-[1,1′-biphenyl]-4-carbonyl)pyrrolidine-2-carboxylic acid]",5,–,88.5%,71.4%,28.1%,96.7%,75.9%,99.3%,23.6%,> 64 mg/mL,–,–,–,poorly soluble in water
